Assay results as given in ChEMBL document CHEMBL1201862, “PubChem BioAssay data set” (2004).
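Five concentrations, 48 hours, 96-well plates. Abbreviation: GI50, concentration required for 50% inhibition of growth.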 Active and inactive are the calls of the source. No stated cut-off is given here; in the data, active = GI50 up to about 1.1 µM and inactive = higher.

Tests used:
Test in all cases: growth of human tumour cells (NCI), 48 h
A498 = system: A498
EKVX = system: EKVX
HCC 2998 = system: HCC 2998
HCT-15 = system: HCT-15
HL-60 = system: HL-60
HT-29 = system: HT-29
KM12 = system: KM12
LOX IMVI = system: LOX IMVI
MDA-MB-435 = system: MDA-MB-435
MDA-N = system: MDA-N
Malme-3M = system: Malme-3M
NCI-H23 = system: NCI-H23
SF-268 = system: SF-268
SF-539 = system: SF-539
SK-OV-3 = system: SK-OV-3
SN12C = system: SN12C
SR = system: SR
SW-620 = system: SW-620
U-251 = system: U-251
UACC-257 = system: UACC-257

Row | Compound | GI50 (A498) | GI50 (EKVX) | GI50 (HCC 2998) | GI50 (HCT-15) | GI50 (HL-60) | GI50 (HT-29) | GI50 (KM12) | GI50 (LOX IMVI) | GI50 (MDA-MB-435) | GI50 (MDA-N) | GI50 (Malme-3M) | GI50 (NCI-H23) | GI50 (SF-268) | GI50 (SF-539) | GI50 (SK-OV-3) | GI50 (SN12C) | GI50 (SR) | GI50 (SW-620) | GI50 (U-251) | GI50 (UACC-257)
1 | CC(C)Cc1ccc(C(C)CC2=CCC(CN(C)C)C2=O)cc1 (configuration not stated) | 18.5 µM (inactive) | 16.4 µM (inactive) | 5.19 µM (inactive) | 2.64 µM | 1.96 µM (inactive) | 6.38 µM (inactive) | 3.13 µM (inactive) | 4.97 µM (inactive) | 8.13 µM (inactive) | 5.75 µM (inactive) | 6.15 µM (inactive) | 12.9 µM (inactive) | 14.9 µM (inactive) | 16.3 µM (inactive) | 17.6 µM (inactive) | 9.1 µM (inactive) | 1.86 µM (inactive) | 2.12 µM (inactive) | 6.34 µM (inactive) | 13.5 µM (inactive)
2 | O=C(CCN1CCCCC1)N1CCc2c([nH]c3ccccc23)C1c1cccnc1 (configuration not stated) | 30.5 µM (inactive) | 52.7 µM (inactive) | 28 µM (inactive) | 85.5 µM | 41.2 µM (inactive) | 32.4 µM (inactive) | > 100 µM (inactive) | 40.6 µM (inactive) | 35.5 µM (inactive) | 28.1 µM (inactive) | 20.8 µM (inactive) | > 100 µM (inactive) | 61.4 µM (inactive) | 61.4 µM (inactive) | > 100 µM (inactive) | > 81.5 µM (inactive) | 41.5 µM (inactive) | > 94 µM (inactive) | 80 µM (inactive) | 17.5 µM (inactive)
3 | O=C1c2cc([N+](=O)[O-])sc2C(=O)c2ccsc21 | 2.14 µM (inactive) | 1.08 µM (active) | 0.52 µM (active) | 0.284 µM | < 0.01 µM (active) | 0.665 µM (active) | 0.407 µM (active) | 0.0687 µM (active) | 0.177 µM (active) | 0.191 µM (active) | 0.164 µM (active) | 0.352 µM (active) | 0.361 µM (active) | 0.365 µM (active) | 1.58 µM (inactive) | 0.327 µM (active) | < 0.0129 µM (active) | 0.245 µM (active) | 0.203 µM (active) | 0.242 µM (active)
4 | COc1ccc(C2c3c[nH]nc3CC3CCCCC32)cc1 (configuration not stated) | 11 µM (inactive) | – | 20.3 µM (inactive) | 15.7 µM | 23.4 µM (inactive) | 23.4 µM (inactive) | – | 17.9 µM (inactive) | 19.4 µM (inactive) | 14.4 µM (inactive) | 19.5 µM (inactive) | 17.4 µM (inactive) | 18.2 µM (inactive) | – | – | 16.9 µM (inactive) | 20.9 µM (inactive) | 18.3 µM (inactive) | 15.5 µM (inactive) | 22.4 µM (inactive)
5 | COC(=O)[C@@H]1OC(C)(c2ccccc2)O[C@H]1C(=O)OC | > 100 µM (inactive) | > 100 µM (inactive) | 76.4 µM (inactive) | > 100 µM | 4.52 µM (inactive) | > 100 µM (inactive) | > 100 µM (inactive) | > 100 µM (inactive) | > 100 µM (inactive) | > 100 µM (inactive) | > 100 µM (inactive) | > 100 µM (inactive) | > 100 µM (inactive) | > 100 µM (inactive) | > 100 µM (inactive) | – | > 100 µM (inactive) | > 100 µM (inactive) | > 100 µM (inactive) | > 100 µM (inactive)
6 | CN(C)c1nncc2[nH]nnc12 | > 100 µM (inactive) | > 100 µM (inactive) | > 100 µM (inactive) | > 100 µM | > 100 µM (inactive) | > 100 µM (inactive) | > 100 µM (inactive) | > 100 µM (inactive) | > 100 µM (inactive) | > 100 µM (inactive) | 92.3 µM (inactive) | > 100 µM (inactive) | – | > 100 µM (inactive) | > 100 µM (inactive) | > 100 µM (inactive) | > 100 µM (inactive) | > 100 µM (inactive) | > 100 µM (inactive) | > 100 µM (inactive)
7 | O=[N+]([O-])c1ccc(NN/N=N/c2ccc(-c3nc4ccccc4s3)cc2)c([N+](=O)[O-])c1 | 4.34 µM (inactive) | 15 µM (inactive) | 17.8 µM (inactive) | 22.7 µM | 16 µM (inactive) | 18.8 µM (inactive) | 27.5 µM (inactive) | 17.3 µM (inactive) | 24.1 µM (inactive) | 19 µM (inactive) | 28.2 µM (inactive) | 20.7 µM (inactive) | 26.5 µM (inactive) | 18.8 µM (inactive) | 28.7 µM (inactive) | 22.6 µM (inactive) | 26.8 µM (inactive) | 37.6 µM (inactive) | 23.4 µM (inactive) | 18.9 µM (inactive)
8 | CC(C)(C)[Si](C)(C)OCC1OC(n2cnc3c(=O)[nH]cnc32)CC1O (configuration not stated) | > 100 µM (inactive) | > 100 µM (inactive) | > 100 µM (inactive) | > 100 µM | > 100 µM (inactive) | > 100 µM (inactive) | > 100 µM (inactive) | > 100 µM (inactive) | > 100 µM (inactive) | > 100 µM (inactive) | > 100 µM (inactive) | > 100 µM (inactive) | > 100 µM (inactive) | > 100 µM (inactive) | > 100 µM (inactive) | > 100 µM (inactive) | > 100 µM (inactive) | > 100 µM (inactive) | > 100 µM (inactive) | > 100 µM (inactive)
9 | CCCCN1C(=O)CC2[C@@H]3CCc4cc(OC)ccc4C3CC[C@]2(C)C1=O (some centres not stated) | > 10 µM (inactive) | > 10 µM (inactive) | > 10 µM (inactive) | > 10 µM | 5.04 µM (inactive) | > 10 µM (inactive) | > 10 µM (inactive) | > 10 µM (inactive) | > 10 µM (inactive) | > 10 µM (inactive) | > 10 µM (inactive) | > 10 µM (inactive) | > 10 µM (inactive) | > 10 µM (inactive) | > 10 µM (inactive) | > 10 µM (inactive) | 6.85 µM (inactive) | > 10 µM (inactive) | > 10 µM (inactive) | > 10 µM (inactive)
10 | COC(=O)C1(Cc2ccc3c(c2)CCC3)Cc2ccccc2C1 | 32.8 µM (inactive) | 36.1 µM (inactive) | 32 µM (inactive) | 25.8 µM | 17 µM (inactive) | 22.2 µM (inactive) | 37.2 µM (inactive) | 14.7 µM (inactive) | 25.2 µM (inactive) | 29.9 µM (inactive) | 27.4 µM (inactive) | 34.7 µM (inactive) | 41.9 µM (inactive) | 34.4 µM (inactive) | 29.7 µM (inactive) | 30.1 µM (inactive) | 29.6 µM (inactive) | 21.9 µM (inactive) | 42.3 µM (inactive) | 26.4 µM (inactive)
11 | Nc1c(-c2cccc3ccccc23)c2ccc([N+](=O)[O-])cc2c(=O)n1-c1nc2ccccc2s1 | 7.66 µM (inactive) | 1.94 µM (inactive) | 7.14 µM (inactive) | 6.38 µM | 2.18 µM (inactive) | 5.02 µM (inactive) | 3.84 µM (inactive) | 4.4 µM (inactive) | 9.38 µM (inactive) | 7.13 µM (inactive) | 3.58 µM (inactive) | 2.11 µM (inactive) | 3.18 µM (inactive) | 2.2 µM (inactive) | 2.75 µM (inactive) | 6.27 µM (inactive) | 12.5 µM (inactive) | 11.2 µM (inactive) | 3.71 µM (inactive) | 3.41 µM (inactive)
12 | COC(=O)C(CCC1CC(OC)N(C(=O)OCc2ccccc2)C1)/N=C/c1ccccc1 (configuration not stated) | > 100 µM (inactive) | 55.2 µM (inactive) | 31.6 µM (inactive) | > 100 µM | 47.8 µM (inactive) | 60.5 µM (inactive) | 94.8 µM (inactive) | > 100 µM (inactive) | 53.8 µM (inactive) | 48 µM (inactive) | – | 76 µM (inactive) | > 100 µM (inactive) | > 100 µM (inactive) | > 100 µM (inactive) | > 100 µM (inactive) | 30.5 µM (inactive) | > 100 µM (inactive) | > 100 µM (inactive) | 31.2 µM (inactive)
13 | O=c1[nH]c2ccc(C(F)(F)F)cc2nc1-c1ccccc1 | > 100 µM (inactive) | > 100 µM (inactive) | > 100 µM (inactive) | > 100 µM | > 100 µM (inactive) | > 100 µM (inactive) | – | > 100 µM (inactive) | > 100 µM (inactive) | > 100 µM (inactive) | > 100 µM (inactive) | > 100 µM (inactive) | > 100 µM (inactive) | > 100 µM (inactive) | – | > 100 µM (inactive) | 88.3 µM (inactive) | > 100 µM (inactive) | – | > 100 µM (inactive)
14 | N=C(N)C1CN(CCCCCCCCCCN2CC(C(=N)N)C(O)=NC2=O)C(=O)N=C1O (configuration not stated) | > 10 µM (inactive) | > 10 µM (inactive) | > 10 µM (inactive) | > 10 µM | > 10 µM (inactive) | > 10 µM (inactive) | > 10 µM (inactive) | > 10 µM (inactive) | > 10 µM (inactive) | > 10 µM (inactive) | > 10 µM (inactive) | > 10 µM (inactive) | – | > 10 µM (inactive) | > 10 µM (inactive) | > 10 µM (inactive) | > 10 µM (inactive) | > 10 µM (inactive) | > 10 µM (inactive) | > 10 µM (inactive)
15 | N/C(=N\c1ccc(Cl)cc1)c1ccccc1N | > 100 µM (inactive) | > 100 µM (inactive) | > 100 µM (inactive) | > 100 µM | > 100 µM (inactive) | > 100 µM (inactive) | > 100 µM (inactive) | > 100 µM (inactive) | > 100 µM (inactive) | > 100 µM (inactive) | > 100 µM (inactive) | > 100 µM (inactive) | > 100 µM (inactive) | – | > 100 µM (inactive) | – | > 100 µM (inactive) | > 100 µM (inactive) | > 100 µM (inactive) | > 100 µM (inactive)
